Values joined by “and” are separate entries in the source; they are usually repeats but may differ in a detail not shown here. Identical values can stand only once.
How the values were obtained:
MCP-1 = assay: In vivo tolerability by IM: serum MCP-1 by Luminex; conditions: IM 1.0 mg/kg, male C57BL/6J mice N=3, Formulation 001, RNA 331
Experimental: (§1) 6-8 week old, male C57BL/6J mice (N=3) were injected with 1.0 mg*kg−1 of RNA-LNPs encoding for firefly-luciferase by intramuscular injection. At 2- and 24-hours post injection, about 40 μL blood was harvested and immediately added to the procoagulant containing tube. Stand for 30 min at room temperature and then centrifuged at 2500 g×10 min to obtain serum. About 15 μL serum samples were aliquoted for cytokine (MCP-1 and IL-6) detection by Luminex (ProcartaPlex Mouse 2-plex, Thermo). PBS group as negative control.

Hep G2 cells [1] = assay: In vitro toxicity: Hep G2 cell viability by CellTiter-Glo; type: cell-based; conditions: 72 hours post transfection, cell only = 100%
Experimental: 2E5 Hep G2 cells were transfected with 1 μg/mL RNA-LNPs. At 72 hours post transfection, cell viability (2-well repeat) was determined with the CellTiter-Glo® reagent kit, according to the kit protocol, measured by a luminometer. Cell only as control (100%).
The cell viability was calculated according to the following formula: […]

C57BL/6J mice [2] = assay: In vivo expression by IM, luciferase RNA-LNPs, whole-body/injection site muscle/organ luminescence; conditions: IM 1.0 mg/kg, 24 h post injection, male C57BL/6J mice N=3, Formulation 001, RNA 331
Experimental: 6-8 week old, male C57BL/6J mice (N=3) were injected with 1.0 mg*kg−1 of RNA-LNPs encoding for firefly-luciferase by intramuscular injection. At 24-hours post injection, animals were intraperitoneally injected with 15 mg/ml of Luciferin substrate and whole-body/injection site muscle/liver/spleen/kidney/heart/lung luminescence were determined by a bioluminescent in vivo imaging system (IVIS).

Balb/c mice = assay: In vivo expression by IV, 0.05 mg/kg luciferase RNA-LNPs, IVIS luminescence; conditions: Formulation No. 010, RNA No. 331, female Balb/c mice, 0.05 mg*kg−1 intravenous; for Whole body at 24 h (p/s) (Mean): 24 hours post injection; for Whole body at 72 h (p/s) (Mean): 72 hours post injection
Summary of the method: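 IVIS bioluminescence was read after IP luciferin (15 mg/ml): whole-body at 24 and 72 h, or whole-body/liver/spleen at 24 h. Dosing was a single IV injection of 0.05 mg*kg−1 RNA-LNPs encoding firefly luciferase into 7-8 week old female Balb/c mice, N=3.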

Hep G2 cells [3] = assay: In vitro expression: luciferase activity in Hep G2 cells transfected with RNA-LNPs; type: cell-based; conditions: 100 ng/mL RNA-LNPs, 72 hours post transfection
Experimental: 2E5 Hep G2 cells were transfected with 100 ng/mL of RNA-LNPs encoding for firefly-luciferase. At 72 hours post transfection, the cells were washed and lysed. The luciferase expression (2-well repeat) was determined in the cell lysates with the luciferase assay reagent kit (Promega), according to the kit protocol, luciferase activity was measured by a luminometer.

injection site skin = assay: In vivo tolerability after intradermal injection: H&E staining of injection site skin; parameters: species or system C57BL/6J mice; key to Infiltration, mononuclear cells, dermis/subcutaneous, focal, Grade / Edema, subcutaneous, focal, Grade / Erosion, focal, Grade / Skin, Grade: 1==minimal; 2=mild; 3=moderate; 4=marked; 5=severe; N=Normal; NA=Not applicable; —=No data; conditions: intradermal 0.15 mg/kg, 72 h, Formulation 001, RNA 331; for Edema, subcutaneous, focal, Grade / Erosion, focal, Grade / Infiltration, mononuclear cells, dermis/subcutaneous, focal, Grade: per animal; for Total score: sum of lesion grades of the group (N=3)
Experimental: 7-8 week old, female C57BL/6J mice (N=3) were injected with 0.15 mg*kg−1 of RNA-LNIPs encoding for firefly-luciferase by intradermal injection. At 72-hours post injection, injection site skin from each animal was collected in 10% formalin, for H&E staining. PBS group (N=2) as control. (Note: 1==minimal, 2=mild, 3=moderate, 4=marked, 5=severe; N=Normal; NA=Not applicable; —=No data)

IL-6 = assay: In vivo tolerability by IM: serum IL-6 by Luminex; conditions: IM 1.0 mg/kg, male C57BL/6J mice N=3, Formulation 001, RNA 331
Experimental: as §1

[4] = RNA encapsulation efficacy (EE %) by Quant-IT Ribogreen kit; type: physicochemical; conditions: LNP
Experimental: (§2) The LNP size and polydispersity index (PDI), determined by dynamic light scattering (DLS), and zeta potential were measured by a Zetasizer machine (Malvern). RNA concentration and encapsulation efficacy (EE %) were analyzed by the Quant-IT Ribogreen kit by calculating the percentage encapsulation at 100%—(RNA-LNPs/RNA-LNPs with Triton X-100).

C57BL/6J mice [5] = assay: In vivo expression by ID, whole-body/injection site skin/lymph node luminescence; conditions: intradermal 0.15 mg/kg, 72 h post injection, female C57BL/6J mice N=3, Formulation 001, RNA 331
Experimental: 7-8 week old, female C57BL/6J mice (N=3) were injected with 0.15 mg*kg−1 of RNA-LNPs encoding for firefly-luciferase by intradermal injection. At 72-hours post injection, animals were intraperitoneally injected with 15 mg/mi of Luciferin substrate and whole-body/injection site skin/lymph node luminescence were determined by a bioluminescent in vivo imaging system (IVIS).

[6] = LNP size and polydispersity index (PDI) by dynamic light scattering (Zetasizer); type: physicochemical; conditions: for Size (nm): Formulation No. 010 (Ionizable lipid:DSPC:cholesterol:DSPE-PEG2000 = 38:30:30:2, N/P 6), RNA No. 331
Experimental: as §2

[7] = 1 μg/mL RNA-LNPs, Formulation 001, RNA 331
[8] = Formulation No. 010, RNA No. 331, 1 μg/mL RNA-LNPs
[9] = Formulation No. 010, RNA No. 331 (firefly-luciferase)
[10] = Formulation No. 001, RNA No. 331
[11] = Formulation No. 010, RNA No. 331

For `CCCCCCCC/C=C\CCCCCCCC(=O)NC(COC(=O)NCCN1CCCCCC1)C(=O)OCCCCCCCCOC(=O)C(CCCCCC)CCCCCCCC` (stereo not drawn) [Lipid 701], the “MCP-1 at 2 h” value (MCP-1) was 628 pg/mL, the “MCP-1 at 24 h” value (MCP-1) was 4620 pg/mL and the “In vitro cell viability (%) (Mean)” value (Hep G2 cells [1]; [7]) was 74.24%. For the same compound, the “In vitro cell viability (%) (Mean)” value (Hep G2 cells [1]; [8]) was 96.43%, the “Heart (p/s)” value (C57BL/6J mice [2]) was 9.37E+05 p/s and the “Injection site muscle (p/s)” value (C57BL/6J mice [2]) was 5.32E+08 p/s. For the same compound, the “Kidney (p/s)” value (C57BL/6J mice [2]) was 2.70E+07 p/s, the “Liver (p/s)” value (C57BL/6J mice [2]) was 2.35E+08 p/s and the “Lung (p/s)” value (C57BL/6J mice [2]) was 2.10E+06 p/s. For the same compound, the “Spleen (p/s)” value (C57BL/6J mice [2]) was 1.24E+08 p/s, the “Whole body (p/s)” value (C57BL/6J mice [2]) was 8.27E+08 p/s and the “Whole body at 24 h (p/s) (Mean)” value (Balb/c mice) was 4.00E+08 p/s. The “Whole body at 72 h (p/s) (Mean)” value (Balb/c mice) was 1.08E+08 p/s, the “In vitro Expression (Mean)” value (Hep G2 cells [3]; Formulation 001, RNA 331) was 6.00E+05 and the “In vitro Expression (Mean)” value (Hep G2 cells [3]; [9]) was 3.96E+05. For the same compound, the “Edema, subcutaneous, focal, Grade” value (injection site skin) was “— and 1 (2×)”, the “Erosion, focal, Grade” value (injection site skin) was “—” and the “Infiltration, mononuclear cells, dermis/subcutaneous, focal, Grade” value (injection site skin) was 1. For the same compound, the Total score (injection site skin) was 5, the “IL-6 at 2 h” value (IL-6) was 21.2 pg/mL and the “IL-6 at 24 h” value (IL-6) was 108 pg/mL. For the same compound, the “EE (%)” value [4, 10] was 92.16%, the “EE (%)” value [4, 11] was 95.09% and the “Injection site Skin (p/s)” value (C57BL/6J mice [5]) was 3.34E+07 p/s. The “Lymph node (p/s)” value (C57BL/6J mice [5]) was 6.94E+06 p/s, the “Whole body (p/s)” value (C57BL/6J mice [5]) was 6.46E+07 p/s and the PDI [6, 10] was 0.10. The Size [6, 10] was 76.05 nm, the “Size (nm)” value [6] was 60.60 nm and the PDI [6, 11] was 0.07.

In the case of `CCCCC/C=C\C/C=C\CCCCCCCC(=O)NC(COC(=O)NCCN1CCCCC1)C(=O)OCCCCCC(=O)OCC(CCCCCCCC)CCCCCCCCCC` (stereo not drawn) [Lipid 728], the “MCP-1 at 2 h” value (MCP-1) is reported as 421 pg/mL, the “MCP-1 at 24 h” value (MCP-1) is reported as 3740 pg/mL and the “In vitro cell viability (%) (Mean)” value (Hep G2 cells [1]; [7]) is reported as 71.13%. The “In vitro cell viability (%) (Mean)” value (Hep G2 cells [1]; [8]) was 90.20%, the “Heart (p/s)” value (C57BL/6J mice [2]) was 4.42E+05 p/s and the “Injection site muscle (p/s)” value (C57BL/6J mice [2]) was 5.61E+08 p/s. For the same compound, the “Kidney (p/s)” value (C57BL/6J mice [2]) was 1.42E+07 p/s, the “Liver (p/s)” value (C57BL/6J mice [2]) was 7.48E+07 p/s and the “Lung (p/s)” value (C57BL/6J mice [2]) was 1.56E+06 p/s. The “Spleen (p/s)” value (C57BL/6J mice [2]) was 3.40E+07 p/s, the “Whole body (p/s)” value (C57BL/6J mice [2]) was 6.11E+08 p/s and the “Whole body at 24 h (p/s) (Mean)” value (Balb/c mice) was 1.86E+08 p/s. The “Whole body at 72 h (p/s) (Mean)” value (Balb/c mice) was 5.78E+07 p/s, the “In vitro Expression (Mean)” value (Hep G2 cells [3]; Formulation 001, RNA 331) was 3.37E+05 and the “In vitro Expression (Mean)” value (Hep G2 cells [3]; [9]) was 4.71E+05. The “Edema, subcutaneous, focal, Grade” value (injection site skin) was “— (2×) and 1”, the “Erosion, focal, Grade” value (injection site skin) was “—” and the “Infiltration, mononuclear cells, dermis/subcutaneous, focal, Grade” value (injection site skin) was 1. The Total score (injection site skin) was 4, the “IL-6 at 2 h” value (IL-6) was 24.3 pg/mL and the “IL-6 at 24 h” value (IL-6) was 143 pg/mL. The “EE (%)” value [4, 10] was 96.53%, the “EE (%)” value [4, 11] was 96.83% and the “Injection site Skin (p/s)” value (C57BL/6J mice [5]) was 4.04E+06 p/s. For the same compound, the “Lymph node (p/s)” value (C57BL/6J mice [5]) was 1.03E+06 p/s, the “Whole body (p/s)” value (C57BL/6J mice [5]) was 3.58E+07 p/s and the PDI [6, 10] was 0.05. The Size [6, 10] was 65.33 nm, the “Size (nm)” value [6] was 56.88 nm and the PDI [6, 11] was 0.09.

From patent US20260200849A1, “CATIONIC LIPIDS AND PREPARATION METHOD THEREOF” (RiboX Therapeutics HK Limited, priority 2024, published 2026)
